In ChEMBL document CHEMBL5543173, “Discovery of a New Anti-Inflammatory Agent from Anemoside B4 Derivatives and Its Therapeutic Effect on Colitis by Targeting Pyruvate Carboxylase” (J Med Chem, 2024):
Values belong to the compound of their own block, whether it stands above or below them. Calls of active or inactive are those of the source. The rule behind the calls is not given here.

Key:
[1] = tested on: Mus musculus; test: Anti-colitis activity in DSS-induced colitis mouse model at 20 to 40 mg/kg; assay type: functional, organism-based; conditions: dose 20-40 mg/kg
[2] = tested on: THP-1; test: cells; conditions: Homo sapiens, THP-1, 24 h
[3] = target: T1, Pyruvate carboxylase, mitochondrial (Homo sapiens, UniProt P11498); test: Inhibition of pyruvate carboxylase (unknown origin) by NADH-malate dehydrogenase based spectrophotometry
T1 sequence (P11498 whole entry): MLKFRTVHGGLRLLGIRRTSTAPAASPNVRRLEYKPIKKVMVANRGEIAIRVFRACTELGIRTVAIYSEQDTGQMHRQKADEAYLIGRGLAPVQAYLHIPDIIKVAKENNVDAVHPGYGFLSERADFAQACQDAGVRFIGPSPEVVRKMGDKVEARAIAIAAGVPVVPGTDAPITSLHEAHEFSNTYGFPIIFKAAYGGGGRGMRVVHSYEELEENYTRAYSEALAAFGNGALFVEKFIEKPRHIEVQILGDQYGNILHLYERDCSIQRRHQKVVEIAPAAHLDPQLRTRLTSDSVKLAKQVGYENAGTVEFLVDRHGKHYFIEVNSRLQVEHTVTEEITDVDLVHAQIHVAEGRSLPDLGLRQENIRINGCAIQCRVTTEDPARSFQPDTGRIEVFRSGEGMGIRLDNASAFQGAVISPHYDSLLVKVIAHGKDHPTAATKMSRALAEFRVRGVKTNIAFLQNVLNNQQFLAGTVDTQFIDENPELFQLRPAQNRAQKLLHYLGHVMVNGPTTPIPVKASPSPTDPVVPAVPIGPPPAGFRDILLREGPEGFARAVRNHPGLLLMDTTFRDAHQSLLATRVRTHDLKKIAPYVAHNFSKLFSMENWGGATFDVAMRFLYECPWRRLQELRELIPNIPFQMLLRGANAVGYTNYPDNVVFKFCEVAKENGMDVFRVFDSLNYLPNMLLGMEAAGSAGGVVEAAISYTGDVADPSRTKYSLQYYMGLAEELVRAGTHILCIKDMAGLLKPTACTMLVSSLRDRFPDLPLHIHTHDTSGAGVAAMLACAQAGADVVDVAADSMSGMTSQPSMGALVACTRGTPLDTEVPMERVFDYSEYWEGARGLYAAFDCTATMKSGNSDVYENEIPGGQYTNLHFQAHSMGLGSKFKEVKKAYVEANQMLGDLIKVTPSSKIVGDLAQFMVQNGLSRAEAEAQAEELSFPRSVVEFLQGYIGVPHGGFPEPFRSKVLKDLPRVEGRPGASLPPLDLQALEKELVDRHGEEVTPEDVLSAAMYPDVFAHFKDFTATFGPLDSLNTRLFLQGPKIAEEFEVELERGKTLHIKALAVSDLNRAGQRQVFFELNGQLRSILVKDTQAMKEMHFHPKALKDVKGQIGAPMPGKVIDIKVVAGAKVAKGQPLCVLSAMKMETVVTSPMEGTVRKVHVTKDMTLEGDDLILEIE

[4] = AUC (0 to t) in colon of ICR mouse at 15 mg/kg, IG measured for 12 hrs by LC-MS/MS analysis; assay type: ADME, organism-based; conditions: po
[5] = Cmax in ICR mouse at 15 mg/kg, IG measured for 12 hrs by LC-MS/MS analysis; assay type: ADME, organism-based; conditions: in vivo, po
[6] = AUC (0 to t) in ICR mouse at 15 mg/kg, IG measured for 12 hrs by LC-MS/MS analysis; assay type: ADME, organism-based; conditions: in vivo, po
[7] = MRT (0 to t) in colon of ICR mouse at 15 mg/kg, IG measured for 12 hrs by LC-MS/MS analysis; assay type: ADME, organism-based; conditions: po
[8] = Half life in colon of ICR mouse at 15 mg/kg, IG measured for 12 hrs by LC-MS/MS analysis; assay type: ADME, organism-based; conditions: po
[9] = Tmax in colon of ICR mouse at 15 mg/kg, IG measured for 12 hrs by LC-MS/MS analysis; assay type: ADME, organism-based; conditions: po
[10] = MRT (0 to t) in ICR mouse at 15 mg/kg, IG measured for 12 hrs by LC-MS/MS analysis; assay type: ADME, organism-based; conditions: in vivo, po
[11] = Half life in ICR mouse at 15 mg/kg, IG measured for 12 hrs by LC-MS/MS analysis; assay type: ADME, organism-based; conditions: in vivo, po, 15 mg/kg, 12 h
[12] = Tmax in ICR mouse at 15 mg/kg, IG measured for 12 hrs by LC-MS/MS analysis; assay type: ADME, organism-based; conditions: in vivo, po
[13] = Cmax in colon of ICR mouse at 15 mg/kg, IG measured for 12 hrs by LC-MS/MS analysis; assay type: ADME, organism-based; conditions: po
[14] = tested on: THP-1; test: Anti-inflammatory activity in LPS-treated human THP-1 cells assessed as decrease in phosphorylated I-kappaB-alpha level at 10 uM pretreated for 1 hr followed by LPS treatment for 6 hrs by Western blot analysis; assay type: functional, cell-based; conditions: time 7.0 hrs
[15] = tested on: Mus musculus; test: Anti-colitis activity in ICR mouse model assessed as reversal of DSS-induced colon shortening administered intragastrically for 9 days consecutively; assay type: functional, organism-based; conditions: route ig, time 9.0 day
[16] = tested on: Mus musculus; test: Anti-colitis activity in ICR mouse model assessed as reversal of DSS-induced splenomegaly at 400 mg/kg, IG treated for 9 days consecutively; assay type: functional, organism-based; conditions: time 9.0 day
[17] = tested on: Mus musculus; test: Anti-colitis activity in ICR mouse model of DSS-induced colitis assessed as decrease in DAI score at 400 mg/kg, IG treated for 9 days consecutively; assay type: functional, organism-based; conditions: time 9.0 day
[18] = tested on: Mus musculus; test: Anti-colitis activity in ICR mouse model assessed as reversal of DSS-induced spleen weight at 400 mg/kg, IG treated for 9 days consecutively; assay type: functional, organism-based; conditions: time 9.0 day
[19] = tested on: Mus musculus; test: Anti-colitis activity in ICR mouse model assessed as decrease in DSS-induced body weight loss at 400 mg/kg, IG treated for 9 days consecutively; assay type: functional, organism-based; conditions: time 9.0 day

Compound: C=C(C)[C@@H]1CC[C@]2(C(=O)O)CC[C@]3(C)[C@H](CC[C@@H]4[C@@]5(C)CC[C@H](O[C@@H]6OC[C@H](O)[C@H](O)[C@H]6O[C@@H]6O[C@@H](C)[C@H](O)[C@@H](O)[C@H]6O)[C@@](C)(CO)[C@@H]5CC[C@]43C)[C@@H]12
Activity [1]: inactive | IC50 [2]: ≥ 80 µM | IC50 [3]: > 10 µM

Compound: C=C(C)[C@@H]1CC[C@]2(C(=O)O[C@@H]3O[C@H](CO[C@@H]4O[C@H](CO)[C@@H](O[C@@H]5O[C@@H](C)[C@H](O)[C@@H](O)[C@H]5O)[C@H](O)[C@H]4O)[C@@H](O)[C@H](O)[C@H]3O)CC[C@]3(C)[C@H](CC[C@@H]4[C@@]5(C)CC[C@H](O[C@@H]6OC[C@H](O)[C@H](O)[C@H]6O[C@@H]6O[C@@H](C)[C@H](O)[C@@H](O)[C@H]6O)[C@@](C)(CO)[C@@H]5CC[C@]43C)[C@@H]12
AUC(0-t) at 12 h [4]: 30.2 ng·h/mL | Cmax [5]: 0.58 ng/mL | AUCt [6]: 2.46 ng·h/mL | MRT last at 12 h [7]: 4.38 h | half-life [8]: 4.65 h | Tmax [9]: 1.92 h | MRT last at 12 h [10]: 5.13 h | t1/2 [11]: 4.74 h | Tmax [12]: 0.46 h | IC50 [2]: ≥ 80 µM | Cmax [13]: 7.12 ng/mL

IC50 [2]: ≥ 80 µM | IC50 [3]: > 1 µM
Compound: C=C(C)[C@@H]1CC[C@]2(C(=O)NCCNC(=O)OC(C)(C)C)CC[C@]3(C)[C@H](CC[C@@H]4[C@@]5(C)CC[C@H](O[C@@H]6OC[C@H](O)[C@H](O)[C@H]6O[C@@H]6O[C@@H](C)[C@H](O)[C@@H](O)[C@H]6O)[C@@](C)(CO)[C@@H]5CC[C@]43C)[C@@H]12

IC50 [2]: ≥ 80 µM
Compound: C=C(C)[C@@H]1CC[C@]2(C(=O)NCCCNC(=O)OC(C)(C)C)CC[C@]3(C)[C@H](CC[C@@H]4[C@@]5(C)CC[C@H](O[C@@H]6OC[C@H](O)[C@H](O)[C@H]6O[C@@H]6O[C@@H](C)[C@H](O)[C@@H](O)[C@H]6O)[C@@](C)(CO)[C@@H]5CC[C@]43C)[C@@H]12
Activity [14]: Active

IC50 [2]: 38 µM | IC50 [3]: > 10 µM
Compound: C=C(C)[C@@H]1CC[C@]2(C(=O)Oc3cc4oc(=O)ccc4cc3O)CC[C@]3(C)[C@H](CC[C@@H]4[C@@]5(C)CC[C@H](O[C@@H]6OC[C@H](O)[C@H](O)[C@H]6O[C@@H]6O[C@@H](C)[C@H](O)[C@@H](O)[C@H]6O)[C@@](C)(CO)[C@@H]5CC[C@]43C)[C@@H]12 (mixture of isomers)

IC50 [2]: ≥ 80 µM | IC50 [3]: > 1 µM
Compound: C=C(C)[C@@H]1CC[C@]2(C(=O)NCCCC(=O)OCC)CC[C@]3(C)[C@H](CC[C@@H]4[C@@]5(C)CC[C@H](O[C@@H]6OC[C@H](O)[C@H](O)[C@H]6O[C@@H]6O[C@@H](C)[C@H](O)[C@@H](O)[C@H]6O)[C@@](C)(CO)[C@@H]5CC[C@]43C)[C@@H]12

Compound: Nc1ccc(O)c(C(=O)O)c1
Activity [15]: Dose-Dependent Effect | Activity [16]: Active | Activity [17]: Active | Activity [18]: Active | Activity [19]: Active
